Converted amounts (≈) assume the structure as drawn.
How the values were obtained:
Assay type in all cases: cell-based
[1] = test system: Mannheimia haemolytica MH 13093 (XB0472-6014.1, BRD field isolate); test: MIC, broth-microdilution (CLSI VET01-A4), strain MH 13093; details: Mannheimia haemolytica strain MH 13093, broth-microdilution; unit assumed
Outline: (§1)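 Using trays holding a doubling concentration series, the MIC is read as the minimal concentration with no eye-detectable growth.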

[2] = test system: Pasteurella multocida PM 6391 (ATCC 43137, reference strain); test: MIC, broth-microdilution (CLSI VET01-A4), strain PM 6391; details: Pasteurella multocida strain PM 6391, broth-microdilution; unit assumed
Outline: as §1

[3] = test system: Mannheimia haemolytica MH 6374 (ATCC 33396, reference strain); test: MIC, broth-microdilution (CLSI VET01-A4), strain MH 6374; details: Mannheimia haemolytica strain MH 6374, broth-microdilution; unit assumed
Outline: as §1

[4] = test system: Mannheimia haemolytica MH 10720 (154, BRD field isolate); test: MIC, broth-microdilution (CLSI VET01-A4), strain MH 10720; details: Mannheimia haemolytica strain MH 10720, broth-microdilution; unit assumed
Outline: as §1

[5] = test system: Pasteurella multocida PM 10775 (080130003051, BRD field isolate); test: MIC, broth-microdilution (CLSI VET01-A4), strain PM 10775; details: Pasteurella multocida strain PM 10775, broth-microdilution; unit assumed
Outline: as §1

[6] = test system: Mannheimia haemolytica MH 13065 (XB0446-6003.9, BRD field isolate); test: MIC, broth-microdilution (CLSI VET01-A4), strain MH 13065; details: Mannheimia haemolytica strain MH 13065, broth-microdilution; unit assumed
Outline: as §1

[7] = test system: Pasteurella multocida PM 12080 (IV102277-0093, BRD field isolate); test: MIC, broth-microdilution (CLSI VET01-A4), strain PM 12080; details: Pasteurella multocida strain PM 12080, broth-microdilution; unit assumed
Outline: as §1

[8] = test system: Mannheimia haemolytica MH 12587 (1071, BRD field isolate, macrolide-resistance: erm+, E+); test: MIC, broth-microdilution (CLSI VET01-A4), strain MH 12587; details: Mannheimia haemolytica strain MH 12587, broth-microdilution; unit assumed
Outline: as §1

[9] = test system: Mannheimia haemolytica MH 6357 (M7/2, reference strain, cattle infection strain); test: MIC, broth-microdilution (CLSI VET01-A4), strain MH 6357; details: Mannheimia haemolytica strain MH 6357, broth-microdilution; unit assumed
Outline: as §1

[10] = test system: Pasteurella multocida PM 6267 (P 2225 (L386), reference strain, mouse infection strain); test: MIC, broth-microdilution (CLSI VET01-A4), strain PM 6267; details: Pasteurella multocida strain PM 6267, broth-microdilution; unit assumed
Outline: as §1

Row | MIC PM 6391 [2] [µg/mL] | MIC PM 10775 [5] [µg/mL] | MIC PM 12080 [7] [µg/mL] | MIC PM 6267 [10] [µg/mL] | Compound | MIC MH 13093 [1] [µg/mL] | MIC MH 6374 [3] [µg/mL] | MIC MH 10720 [4] [µg/mL] | MIC MH 13065 [6] [µg/mL] | MIC MH 12587 [8] [µg/mL] | MIC MH 6357 [9] [µg/mL]
1 | 0.8 (≈ 1.59 µM) | 0.2 (≈ 0.397 µM) | 0.4 (≈ 0.794 µM) | 1.6 (≈ 3.18 µM) | CSC(C)(C)[C@H](NC(=O)c1ccc(C#Cc2ccc(CNCc3ccncc3)nc2)cc1)C(=O)NO [Compound 341] | 1.6 (≈ 3.18 µM) | 1.6 (≈ 3.18 µM) | 0.2 (≈ 0.397 µM) | 1.6 (≈ 3.18 µM) | 3.1 (≈ 6.16 µM) | 0.8 (≈ 1.59 µM)
2 | ≤ 0.1 | ≤ 0.1 | ≤ 0.1 | ≤ 0.1 | CC(C)(O)[C@H](NC(=O)c1ccc(C#Cc2ccc(CNCc3ccccc3)cc2)cc1)C(=O)NO [Compound 223] | 0.4 (≈ 0.848 µM) | 0.4 (≈ 0.848 µM) | ≤ 0.1 | 0.4 (≈ 0.848 µM) | 0.8 (≈ 1.7 µM) | 0.8 (≈ 1.7 µM)
3 | 0.8 (≈ 1.9 µM) | ≤ 0.1 | 0.4 (≈ 0.949 µM) | 0.4 (≈ 0.949 µM) | CCCNCc1ccc(C#Cc2ccc(C(=O)N[C@H](C(=O)NO)[C@@H](C)CC)cc2)cc1 [Compound 193] | 3.1 (≈ 7.35 µM) | 6.3 (≈ 14.9 µM) | 0.8 (≈ 1.9 µM) | 3.1 (≈ 7.35 µM) | 6.3 (≈ 14.9 µM) | 6.3 (≈ 14.9 µM)
4 | ≤ 0.1 | ≤ 0.1 | ≤ 0.1 | 0.2 (≈ 0.371 µM) | CC(C)([C@H](NC(=O)c1ccc(C#Cc2ccc(CNCc3ccccc3)s2)cc1)C(=O)NO)S(C)(=O)=O [Compound 315] | 0.4 (≈ 0.741 µM) | ≤ 0.1 | ≤ 0.1 | ≤ 0.1 | 0.4 (≈ 0.741 µM) | ≤ 0.1
5 | ≤ 0.1 | 0.2 (≈ 0.407 µM) | 0.2 (≈ 0.407 µM) | 3.1 (≈ 6.31 µM) | CON=C(C)[C@H](NC(=O)c1ccc(C#Cc2ccc(CNCc3nccs3)cc2)cc1)C(=O)NO [Compound 395] | 0.8 (≈ 1.63 µM) | 0.8 (≈ 1.63 µM) | 0.4 (≈ 0.814 µM) | 0.8 (≈ 1.63 µM) | 0.2 (≈ 0.407 µM) | 0.4 (≈ 0.814 µM)
6 | ≤ 0.1 | ≤ 0.1 | ≤ 0.1 | ≤ 0.1 | CC(C)(O)[C@H](NC(=O)c1ccc(C#Cc2ccc(CNCc3ccco3)cc2)cc1)C(=O)NO [Compound 231] | 0.4 (≈ 0.867 µM) | 0.2 (≈ 0.433 µM) | ≤ 0.1 | 0.2 (≈ 0.433 µM) | 0.8 (≈ 1.73 µM) | 0.4 (≈ 0.867 µM)
7 | 0.4 (≈ 0.786 µM) | ≤ 0.1 | ≤ 0.1 | ≤ 0.1 | CSC(C)(C)[C@H](NC(=O)c1ccc(C#Cc2ccc(CNCc3nccs3)cc2)cc1)C(=O)NO [Compound 254] | 0.8 (≈ 1.57 µM) | 1.6 (≈ 3.15 µM) | 0.2 (≈ 0.393 µM) | 0.8 (≈ 1.57 µM) | 1.6 (≈ 3.15 µM) | 0.8 (≈ 1.57 µM)
8 | 0.4 (≈ 0.835 µM) | ≤ 0.1 | 0.4 (≈ 0.835 µM) | 0.2 (≈ 0.418 µM) | O=C(N[C@@H](CO)C(=O)NO)c1ccc(C#Cc2ccc(CNCc3ccnc(Cl)c3)cc2)cc1 [Compound 214] | 3.1 (≈ 6.47 µM) | 1.6 (≈ 3.34 µM) | 0.8 (≈ 1.67 µM) | 3.1 (≈ 6.47 µM) | 6.3 (≈ 13.2 µM) | 1.6 (≈ 3.34 µM)

Row | Compound | MIC PM 6391 [2] [µg/mL] | MIC PM 10775 [5] [µg/mL] | MIC PM 12080 [7] [µg/mL] | MIC PM 6267 [10] [µg/mL] | MIC MH 13093 [1] [µg/mL] | MIC MH 6374 [3] [µg/mL] | MIC MH 10720 [4] [µg/mL] | MIC MH 13065 [6] [µg/mL] | MIC MH 12587 [8] [µg/mL] | MIC MH 6357 [9] [µg/mL]
9 | CC(C)([C@H](NC(=O)c1ccc(C#Cc2ccc(CNCc3cccnc3)cc2)cc1)C(=O)NO)S(C)(=O)=O [C.267] | ≤ 0.1 | ≤ 0.1 | ≤ 0.1 | ≤ 0.1 | 0.8 (≈ 1.5 µM) | 0.4 (≈ 0.748 µM) | ≤ 0.1 | 0.8 (≈ 1.5 µM) | 1.6 (≈ 2.99 µM) | 0.8 (≈ 1.5 µM)
